Results taken from article PMC6240096, “A hPSC-based platform to discover gene-environment interactions that impact human β-cell and dopamine neuron survival” (Nature Communications, 2018).
pIC50: −log10 of the molar value.

Experiments:
INS- cells = experiment: High-content survival / inhibitory curve, hESC-derived INS- cells; assay type: cell-based, human; conditions: Homo sapiens, 96 h; H1 hESC-derived, β-cell differentiation protocol 1, 4 days treatment, n = 8
Method: The screening library ToxCast Phase I was obtained from the US Environmental Protection Agency, which contains approximately 2000 compounds dissolved at 20 mM in DMSO. The H1 hESC-derived population was dissociated with Accutase and re-plated onto laminin V-coated 384-well plates at 5000 cells per well. After 16 h incubation, cells were treated with individual compounds from the ToxCast library with four concentrations, including 20 nM, 200 nM, 2 μM, and 20 μM, for each compound. After 4 days, the cells were fixed with 10% formalin and stained with an INS antibody and DAPI, followed by automatic imaging and analysis by ImageXpress^MICRO Automated High-Content Analysis System (Molecular Devices) to count the numbers of INS^+ and INS^− cells. The survival rate was calculated by dividing the numbers of INS^+ cells in compound treated conditions by the average number of INS^+ cells in DMSO-treated conditions. The compounds that induced more than 60% reduction of the survival rate of INS^+ cells and less than 20% of the INS^− cells were chosen as primary hits. […]
hESCs-derived INS^+ cells, MSCs[43], neurons, and hepatocytes[44] were derived based on the reported protocols and re-plated on 96-well plates with Accutase digestion. […] Plates were analyzed by ImageXpress^MICRO Automated High-Content Analysis System.

INS+ cells = experiment: High-content survival / inhibitory curve, hESC-derived INS+ cells; assay type: cell-based, human
Method: The screening library ToxCast Phase I was obtained from the US Environmental Protection Agency, which contains approximately 2000 compounds dissolved at 20 mM in DMSO. The H1 hESC-derived population was dissociated with Accutase and re-plated onto laminin V-coated 384-well plates at 5000 cells per well. After 16 h incubation, cells were treated with individual compounds from the ToxCast library with four concentrations, including 20 nM, 200 nM, 2 μM, and 20 μM, for each compound. After 4 days, the cells were fixed with 10% formalin and stained with an INS antibody and DAPI, followed by automatic imaging and analysis by ImageXpress^MICRO Automated High-Content Analysis System (Molecular Devices) to count the numbers of INS^+ and INS^− cells. The survival rate was calculated by dividing the numbers of INS^+ cells in compound treated conditions by the average number of INS^+ cells in DMSO-treated conditions. The compounds that induced more than 60% reduction of the survival rate of INS^+ cells and less than 20% of the INS^− cells were chosen as primary hits. Hit compounds were then selected and validated in three additional independent experiments using the same protocol as the primary screening.
hESCs-derived INS^+ cells, MSCs[43], neurons, and hepatocytes[44] were derived based on the reported protocols and re-plated on 96-well plates with Accutase digestion. Cardiomyocytes (CMs) were differentiated from H9-MYH6: mCherry reporter line, based on the reported protocol. After overnight incubation, cells were treated with DMSO or different doses of hit compounds for 4 days. After fixation, the cells were stained with markers for each cell type. DAPI was used to stain cell nuclei. Plates were analyzed by ImageXpress^MICRO Automated High-Content Analysis System.

primary human islets = experiment: Primary human islets, INS and propidium iodide staining; assay type: cell-based; conditions: 2 mM GSH
Excerpt: Fig. 1 A high-content screen identifies propargite as a compound that induces pancreatic β-cell death. a Scheme of pancreatic β-cell differentiation and high-content chemical screen. b Chemical structure of two hit compounds: Propargite and Vacor. c Inhibitory curve and IC50 of propargite or Vacor on INS^+ and INS^− cells (n = 8). d, e Immunocytochemistry analysis (d) and survival rate (e) of H1-derived glucose-responding INS^+ and INS^− cells treated with different doses of propargite (n = 8). Pancreatic β-like cells were stained for INS (green) and all cells were counterstained by DAPI (blue). Scale bars, 100 μm. The survival rate was calculated by dividing the average number of cells in propargite-treated conditions by the average number of cells in the DMSO control. f, g Representative live images (f) and fold-change (g) of INS^w/GFP HES3-derived INS-GFP^+ cells treated with 1.6 μM propargite or DMSO control at different time points compared to initial time 0 (n = 3). Scale bars, 100 μm. h, i, j Representative images (h) and cell survival rate (i) or cell death rate (j) of DMSO or propargite-treated human primary islets (n = 3). Pancreatic β-cells were stained with the INS antibody (green) and dead cells were stained with propidium iodide (PI) (red). Scale bars, 200 μm. Scale bars for higher resolution (Zoom) images, […]. Pancreatic β-cell death rate was calculated by defining percentages of INS^+ PI^+ cells in INS^+ cells, and non-β-cell death rate was calculated by percentages of INS^−PI^+ cells in INS^− cells.

MIN6 cells = experiment: Western blotting of γ-H2A.X and extracellular HMGB1 in MIN6 cells; assay type: cell-based, mouse; conditions: 2 mM GSH, day 4
Excerpt: To extract intracellular protein, cells were placed on ice, washed twice with ice-cold PBS and lysed immediately with RIPA buffer (Life Technologies, 89900) supplemented with a protease inhibitor cocktail (Life Technologies, 78440). Cell lysates were then sonicated and the soluble fraction was collected after centrifugation. Protein amount was quantified by the BCA protein assay (Life Technologies, 23227). To extract extracellular HMGB1, tissue culture media were collected and concentrated using Afyon SDS-PAGE sample preparation kit (advansta, K-02101-025). 20 μg of total protein for each sample was mixed with loading buffer and incubated for 5 min at 95 °C before being loaded into NuPAGE® Novex® 4–12% […] Protein Gels (Life Technologies, NP0321BOX) for electrophoresis. Separated proteins were transferred to a PVDF membrane (Millipore, IPSN07852) after electrophoresis. The membrane was blocked with 5% non-fat milk in TBST (50 mM Tris–HCl at pH 8.0, 150 mM NaCl, 0.1% Tween 20) followed by overnight incubation with the primary antibody at 4 °C. The following antibodies were used with the dilution ratio noted: rabbit anti-HMGB1 (1:1000, Cell Signaling Technology, #6893), rabbit anti-γ-H2A.X (1:1000, Cell Signaling Technology, #9718), rabbit anti-LC3B (1:1000, Cell Signaling Technology, #3868), mouse anti-GSTT1 (1:1000, GeneTex, GTX109250), rabbit anti-GSTM1 (1:1000, R&D system, MAB6894), mouse anti-GAPDH (1:50000, Abcam, ab8245). A peroxidase conjugated horse anti-mouse IgG secondary antibody (1:20000, Vector Laboratories, PI-2000) or peroxidase conjugated goat anti-Rabbit IgG secondary antibody (1:20000, Vector Laboratories, PI-1000) was used for western blot. ECL signals were developed and detected using the SuperSignal™ West Femto Maximum Sensitivity Substrate (Life Technologies, 34094) and a C-DiGit Chemiluminescent Western Blot Scanner (LI-COR). Uncropped scans of all the blots were shown in Supplementary Fig. 7 in the Supplementary Information.

| Structure (SMILES) | pIC50 (INS- cells) | pIC50 (INS+ cells; Homo sapiens, 96 h, read-out: IC50 for INS+ cells) | rescue of propargite-induced β-cell-specific death in human islets (primary human islets) | rescue of propargite-induced DNA damage (γ-H2A.X expression) (MIN6 cells) | rescue of propargite-induced necrosis (extracellular HMGB1) (MIN6 cells) | rescue of survival rate of INS+ cells after propargite treatment (INS+ cells; 2 mM GSH) |
| --- | --- | --- | --- | --- | --- | --- |
| O=C(NCc1cccnc1)Nc1ccc([N+](=O)[O-])cc1 [Vacor, N-3 pyridylmethyl-N′’-4-nitrophenyl urea] | 4.21 | 5.31 | – | – | – | – |
| N[C@@H](CCC(=O)N[C@@H](CS)C(=O)NCC(=O)O)C(=O)O [GSH, glutathione, reference compound] | – | – | rescued | fully rescued | partially rescued | fully rescued |
